Legend:
[1] = tested on: human lung tumors; conditions: human lung tumors implanted into rats and mice; cited from earlier work
[2] = Oral absorption of CBD in rats; format: in vivo, Sprague drawly rats; conditions: gavage to the stomach, 12 mg/kg, plasma CBD by LC-MS
Description: A tablet of composition of 5A was diluted with water of about 40° C. before administration to the rats to obtain CBD concentration of 12 mg/ml and to obtain the cannabinoid oil-in-water emulsion. The emulsion was administered in gavage to the stomach of Sprague drawly rats weighing 220 gr to 250 gr at 12 mg/kg. Blood sample was obtained at various time points after the oral administration and plasma separated. The CBD concentration in the plasma was tested by LC-MS and the area under the curve calculate. Group one was administered with 12 mg/kg of pure CBD dissolved in “solvent” propylene glycol:ethanol 1:1 solution. Group two received the test formulation.

For `CCCCCc1cc(O)c2c(c1)OC(C)(C)[C@@H]1CCC(C)=C[C@@H]21` [THC, tetrahydrocannabinol], the “reduction in tumor mass and volume” value [1] is given as at most 50% and the “reduction of cancerous lesions in the lungs” value [1] is given as “around 60%”.

In the case of `C=C(C)[C@@H]1CCC(C)=C[C@H]1c1c(O)cc(CCCCC)cc1O` [CBD, cannabidiol], the Cmax ([2]; Sprague-Dawley, rat, po) was 38 ng/mL and the “AUC (Area Under the Curve of CBD in rats' plasma)” value [2] was 90 ± 12 ng/mL/h.

From patent US20210212946A1, “SOLID SELF-EMULSIFYING CANNABINOID COMPOSITIONS” (ICDPHARMA LTD., priority 2018, published 2021)
